Assay results taken from patent US3982931A, “N,N-di-sec.butyl-benzamide herbicides” (priority 1967, dated 1976).

Assays:
artemisia vulgaris L. = assay: herbicidal activity, soil treatment one day after sowing; assay type: in vivo
[1] = tested on: phaseolus vulgaris (bean); assay: activity on agrarian species, soil treatment one day after sowing; assay type: in vivo, Phaseolus vulgaris L.
In short: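 Product applied to soil one day after sowing at 1, 3, 6, 8, 10, 12 and 14 kg/ha. Effect on bean plants scored against control on a 0–4 scale, 4 meaning no germination or total containment at emergence; intermediate activity recorded with both values.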

zea mais L. (corn) = assay: as above; assay type: in vivo
In short: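 Pre-emergence soil application one day after sowing at 1, 3, 6, 8, 10, 12 and 14 kg/ha. Crop damage scored visually against untreated control on a 0–4 scale (0 = no effect, 4 = no germination or total containment at emergence); intermediate effects recorded with both scores.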

chenopodium album L. = assay: herbicidal activity, soil treatment one day after sowing; assay type: in vivo
Echinocloa crus-galli = assay: Example 3 rice field test, granular composition; assay type: in vivo; conditions: 6 kg of PA 106 per hectar
Method: In this test a granular composition of PA 106 containing 5% of active principle and 95% of bentonite was used. The treatment was carried out in a rice field with areas of from 900 to 1000 sq.m on naked soil flooded just shortly before the sowing of the rice. There were used doses of granulate equal to 4, 6, 8 and 10 kg of active substance per hectar of surface.

vicia sativa L. = assay: herbicidal activity, soil treatment one day after sowing; assay type: in vivo
In short: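 Pre-emergence soil treatment one day after sowing; activity scored visually on a […] scale against untreated control, from slight difference (1) to no germination or total containment at emergence (4); intermediate activity recorded as both classes, preeminent value first.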

rice = assay: plot-test in open field planted with rice; assay type: in vivo; conditions: even at 30 kg/ha of active substance
solanum Lycopersicum L. = assay: activity on agrarian species, soil treatment one day after sowing; assay type: in vivo; conditions: 6 kg/ha
Description: The infesting species and the agrarian species have been indicated in Table 1 by letters, as follows:
M = solanum Lycopersicum L.
(§1) Method of evaluation of the results (of tests):
(§2) 0 = no activity and no difference with respect to the control;
(§3) 1 slight differences with respect to the control;
(§4) 3 = considerable activity with damages that definitely impair the further development of most of the small plants; an activity degree already useful for practical purposes;
(§5) 4 = maximum of activity with lack of germination or total containment of the small plants in the emerging stage.
In the case of an intermediate activity between two classes of the scale, both values are recorded with the one which corresponds to the preeminent activity preceding. […]

pisum sativum L. (pea) = assay: as above; assay type: in vivo
[2] = tested on: amaranthus retroflexus L.; assay: herbicidal activity, soil treatment one day after sowing; assay type: in vivo
[3] = tested on: Panichum Dichotomi florum M.; assay: herbicidal activity of PA 106 against infesting herbs; assay type: in vivo
Description: as §1, §2, §3, §4, §5
(§6) In the case of an intermediate activity between two classes of the scale, both values are recorded with the one which corresponds to the preeminent activity preceding.
(§7) TABLE 3 reports data on the herbicidal activity against infesting herbs, while TABLE 4 reports data concerning the activity on useful species of agricultural cultivations. These tables employ the criterion explained previously. The product was spread on the soil one day after sowing, in quantities of 1, 3, 6, 8, 10, 12 and 14 kg/ha.

Sorghum sp. = assay: as above; assay type: in vivo
Description: as §1, §2, §3, §4, §5, §6, §7

Digitaria sanguinalis L. = assay: as above; assay type: in vivo
Description: as §1, §2, §3, §4, §5, §6, §7

Papmer rhoeas L. = assay: as above; assay type: in vivo
Description: as §1, §2, §3, §4, §5, §6, §7

Portulaca oleracea L. = assay: as above; assay type: in vivo
Description: as §1, §2, §3, §4, §5, §6, §7

[4] = tested on: triticum vulgare L. (wheat); assay: activity on agrarian species, soil treatment one day after sowing; assay type: in vivo
In short: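 Pre-emergence soil treatment one day after sowing of wheat, product applied at 1, 3, 6, 8, 10, 12 and 14 kg/ha. Activity scored visually on a 0–4 scale relative to untreated control (0 = none, 4 = no germination/total containment); intermediate activity recorded as both values.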

CCC(C)N(C(=O)c1ccc(Cl)c(Cl)c1)C(C)CC (stereo not drawn) [PA106, 3,4-dichloro-N,N-di-sec.butyl-benzamide]
herbicidal activity, Table 3 (artemisia vulgaris L.; 1 kg/ha): 0 | activity on B, 0-4 scale (artemisia vulgaris L.; 2 kg/ha): 0-1 | herbicidal activity, Table 3 (artemisia vulgaris L.; 3 kg/ha): 1 | activity on B, 0-4 scale (artemisia vulgaris L.; 4 kg/ha): 1-2 | activity on B, 0-4 scale (artemisia vulgaris L.; 6 kg/ha): 3 | herbicidal activity, Table 3 (artemisia vulgaris L.; 6 kg/ha): 3 | herbicidal activity, Table 3 (artemisia vulgaris L.; 8 kg/ha): 3 | herbicidal activity, Table 3 (artemisia vulgaris L.; 10 kg/ha): 3 | herbicidal activity, Table 3 (artemisia vulgaris L.; 12 kg/ha): 4/3 | herbicidal activity, Table 3 (artemisia vulgaris L.; 14 kg/ha): 4 | activity on useful species, Table 4 ([1]; 1 kg/ha): 0 | activity on useful species, Table 4 ([1]; 3 kg/ha): 0 | activity on I, 0-4 scale ([1]; 6 kg/ha): 0 | activity on useful species, Table 4 ([1]; 6 kg/ha): 0 | activity on useful species, Table 4 ([1]; 8 kg/ha): 0 | activity on useful species, Table 4 ([1]; 10 kg/ha): 0 | activity on useful species, Table 4 ([1]; 12 kg/ha): 0/1 | activity on useful species, Table 4 ([1]; 14 kg/ha): 0/1 | activity on useful species, Table 4 (zea mais L. (corn); 1 kg/ha): 0 | activity on useful species, Table 4 (zea mais L. (corn); 3 kg/ha): 0 | activity on O, 0-4 scale (zea mais L. (corn); 6 kg/ha): 0 | activity on useful species, Table 4 (zea mais L. (corn); 6 kg/ha): 0 | activity on useful species, Table 4 (zea mais L. (corn); 8 kg/ha): 0 | activity on useful species, Table 4 (zea mais L. (corn); 10 kg/ha): 0 | activity on useful species, Table 4 (zea mais L. (corn); 12 kg/ha): 0/1 | activity on useful species, Table 4 (zea mais L. (corn); 14 kg/ha): 1 | herbicidal activity, Table 3 (chenopodium album L.; 1 kg/ha): 0 | activity on C, 0-4 scale (chenopodium album L.; 2 kg/ha): 0-1 | herbicidal activity, Table 3 (chenopodium album L.; 3 kg/ha): 1 | activity on C, 0-4 scale (chenopodium album L.; 4 kg/ha): 1-2 | activity on C, 0-4 scale (chenopodium album L.; 6 kg/ha): 3 | herbicidal activity, Table 3 (chenopodium album L.; 6 kg/ha): 3 | herbicidal activity, Table 3 (chenopodium album L.; 8 kg/ha): 2/3 | herbicidal activity, Table 3 (chenopodium album L.; 10 kg/ha): 3 | herbicidal activity, Table 3 (chenopodium album L.; 14 kg/ha): 3/4 | inhibition of growth of the infestant (Echinocloa crus-galli): for all practical purposes be considered as total | activity on F, 0-4 scale (vicia sativa L.; 2 kg/ha): 0 | activity on F, 0-4 scale (vicia sativa L.; 4 kg/ha): 0 | activity on F, 0-4 scale (vicia sativa L.; 6 kg/ha): 0 | phytotoxic effects on the rice (rice): no phytotoxic effects | activity on M, 0-4 scale (solanum Lycopersicum L.): 0 | activity on useful species, Table 4 (pisum sativum L. (pea); 1 kg/ha): 0 | activity on useful species, Table 4 (pisum sativum L. (pea); 3 kg/ha): 0 | activity on L, 0-4 scale (pisum sativum L. (pea); 6 kg/ha): 0 | activity on useful species, Table 4 (pisum sativum L. (pea); 6 kg/ha): 0 | activity on useful species, Table 4 (pisum sativum L. (pea); 8 kg/ha): 0 | activity on useful species, Table 4 (pisum sativum L. (pea); 10 kg/ha): 0 | activity on useful species, Table 4 (pisum sativum L. (pea); 12 kg/ha): 0 | activity on useful species, Table 4 (pisum sativum L. (pea); 14 kg/ha): 0 | herbicidal activity, Table 3 ([2]; 1 kg/ha): 0 | activity on A, 0-4 scale ([2]; 2 kg/ha): 1 | herbicidal activity, Table 3 ([2]; 3 kg/ha): 1/2 | activity on A, 0-4 scale ([2]; 4 kg/ha): 2 | activity on A, 0-4 scale ([2]; 6 kg/ha): 3 | herbicidal activity, Table 3 ([2]; 6 kg/ha): 3 | herbicidal activity, Table 3 ([2]; 8 kg/ha): 4/3 | herbicidal activity, Table 3 ([2]; 10 kg/ha): 4 | herbicidal activity, Table 3 ([2]; 12 kg/ha): 4 | herbicidal activity, Table 3 ([2]; 14 kg/ha): 4 | herbicidal activity, Table 3 ([3]; 1 kg/ha): 2 | herbicidal activity, Table 3 ([3]; 3 kg/ha): 5/4 | herbicidal activity, Table 3 ([3]; 6 kg/ha): 4 | herbicidal activity, Table 3 ([3]; 8 kg/ha): 4 | herbicidal activity, Table 3 ([3]; 10 kg/ha): 4 | herbicidal activity, Table 3 ([3]; 12 kg/ha): 4 | herbicidal activity, Table 3 ([3]; 14 kg/ha): 4 | herbicidal activity, Table 3 (Sorghum sp.; 1 kg/ha): 1 | herbicidal activity, Table 3 (Sorghum sp.; 3 kg/ha): 3 | herbicidal activity, Table 3 (Sorghum sp.; 6 kg/ha): 4 | herbicidal activity, Table 3 (Sorghum sp.; 8 kg/ha): 4 | herbicidal activity, Table 3 (Sorghum sp.; 10 kg/ha): 4 | herbicidal activity, Table 3 (Sorghum sp.; 12 kg/ha): 4 | herbicidal activity, Table 3 (Sorghum sp.; 14 kg/ha): 4 | herbicidal activity, Table 3 (Digitaria sanguinalis L.; 1 kg/ha): 2/3 | herbicidal activity, Table 3 (Digitaria sanguinalis L.; 3 kg/ha): 4/3 | herbicidal activity, Table 3 (Digitaria sanguinalis L.; 6 kg/ha): 4 | herbicidal activity, Table 3 (Digitaria sanguinalis L.; 8 kg/ha): 4 | herbicidal activity, Table 3 (Digitaria sanguinalis L.; 10 kg/ha): 4 | herbicidal activity, Table 3 (Digitaria sanguinalis L.; 12 kg/ha): 4 | herbicidal activity, Table 3 (Digitaria sanguinalis L.; 14 kg/ha): 4 | herbicidal activity, Table 3 (Papmer rhoeas L.; 1 kg/ha): 0 | herbicidal activity, Table 3 (Papmer rhoeas L.; 3 kg/ha): 1 | herbicidal activity, Table 3 (Papmer rhoeas L.; 6 kg/ha): 2 | herbicidal activity, Table 3 (Papmer rhoeas L.; 8 kg/ha): 3 | herbicidal activity, Table 3 (Papmer rhoeas L.; 10 kg/ha): 4 | herbicidal activity, Table 3 (Papmer rhoeas L.; 12 kg/ha): 4 | herbicidal activity, Table 3 (Papmer rhoeas L.; 14 kg/ha): 4 | herbicidal activity, Table 3 (Portulaca oleracea L.; 1 kg/ha): 0 | herbicidal activity, Table 3 (Portulaca oleracea L.; 3 kg/ha): 1/2 | herbicidal activity, Table 3 (Portulaca oleracea L.; 6 kg/ha): 3 | herbicidal activity, Table 3 (Portulaca oleracea L.; 8 kg/ha): 3/4 | herbicidal activity, Table 3 (Portulaca oleracea L.; 10 kg/ha): 4 | herbicidal activity, Table 3 (Portulaca oleracea L.; 12 kg/ha): 4 | herbicidal activity, Table 3 (Portulaca oleracea L.; 14 kg/ha): 4 | activity on useful species, Table 4 ([4]; 1 kg/ha): 0 | activity on useful species, Table 4 ([4]; 3 kg/ha): 0 | activity on N, 0-4 scale ([4]; 6 kg/ha): 0 | activity on useful species, Table 4 ([4]; 6 kg/ha): 0 | activity on useful species, Table 4 ([4]; 8 kg/ha): 0/1 | activity on useful species, Table 4 ([4]; 10 kg/ha): 0/1 | activity on useful species, Table 4 ([4]; 12 kg/ha): 1 | activity on useful species, Table 4 ([4]; 14 kg/ha): 1
